Source: patent US8110368B1, “Synuclein gamma as a biomarker of obesity and obesity-related disorders” (The United States of America Department of Agriculture, as …, priority 2008, dated 2012)

How the values were obtained:
[1] = test system: γ-synuclein mRNA in 3T3-L1 adipocytes; assay: γ-synuclein mRNA expression in 3T3-L1 adipocytes treated with PPARγ agonist (quantitative real-time PCR); format: cell-based, murine
Experimental: 3T3-L1 Adipocyte Differentiation & PPARγAgonist Studies. Results herein were generated using the samples described in our recently-published studies (1). Briefly, murine 3T3-L1 fibroblasts (ATCC, Manassas, Va.) grown to between 5-9 passages were induced to differentiate into adipocytes using a protocol similar to Farmer et al. (i.e., (22)). Two-day-confluent cells grown in high-glucose (25 mM) DMEM and 10% FBS (37° C., 5% CO2) in 6-well rat tail collagen-coated plates were exposed to differentiation medium containing 10 μg/ml bovine insulin (˜1.6 μM), 1 μM dexamethasone, and 0.5 mM 3-isobutyl-1-methylxanthine (IBMX) for 2 days. Cells were grown thereafter in maintenance medium (DMEM/10% FBS+2.5 μg/mL insulin). Cell culture media was replaced daily. Proof-of-principle studies tested the ability of the potent non-thiazoladinedione PPARγ agonist GW1929 (23) to regulate γ-synuclein gene expression at various points in the 3T3-L1 adipocyte differentiation and maturation process, as indicated. For these experiments, cells were cultured for the times and doses indicated in media containing vehicle (DMSO; 0.1% by vol.) or GW1929 (0.1% by vol.). RNA was prepared from 3T3-L1 adipocytes using Trizol-based methods for cell culture samples (Ambion, Austin, Tex.). RNA abundance and integrity were checked using a Nanoprop® ND-1000 Spectrophotometer (Nanoprop Technologies, Wilmington, Del.) and an Agilent 2100 bioanalyzer (Agilent, Foster City, Calif.) per manufacturer's instructions.
Gene Expression Analyses. RNA abundance of γ-synuclein and of other genes of interest were measured in 3T3-L1 adipocyte samples using quantitative real-time PCR, as described in detail previously (1). These assays utilized gene-specific TaqMan primers and FAM-MGB labeled probes (Assays-on-Demand®, Applied Biosystems Inc., Foster City, Calif.) and were run in duplicate or triplicate for each sample using an ABI 7900HT instrument. Primers/probe ABI identifiers for human reagents were γ-synuclein (Hs00268306 ml), leptin (Hs00174877 ml), and 11B-hydroxysteroid dehydrogenase (11β-HSD-1; Hs00194153 ml), and for mouse, γ-synuclein (Mm00488345 ml) and others described previously (1). Mouse and human tissue panel samples, and samples derived from non-obese and obese WAT (24) were assayed using a two-step process with preparation of cDNA from total RNA, followed by quantitative real-time PCR. […] Amplification cycle number (Ct) of 18S for each sample was determined using commercial 18S primers and probe (ABI) to correct for template loading differences across all target genes (ΔCt method: ΔCt=sample Ct−18S Ct), and expression values were determined relative to control transcript levels using a mathematical formula as previously described (1). […]

[2] = test system: leptin mRNA in 3T3-L1 adipocytes; assay: leptin mRNA expression in 3T3-L1 adipocytes treated with PPARγ agonist (quantitative real-time PCR); format: cell-based, murine; conditions: fully-differentiated 3T3-L1 adipocytes, 18 hr treatment, compared with the γ-synuclein mRNA decrease
Experimental: 3T3-L1 Adipocyte Differentiation & PPARγAgonist Studies. Results herein were generated using the samples described in our recently-published studies (1). Briefly, murine 3T3-L1 fibroblasts (ATCC, Manassas, Va.) grown to between 5-9 passages were induced to differentiate into adipocytes using a protocol similar to Farmer et al. (i.e., (22)). Two-day-confluent cells grown in high-glucose (25 mM) DMEM and 10% FBS (37° C., 5% CO2) in 6-well rat tail collagen-coated plates were exposed to differentiation medium containing 10 μg/ml bovine insulin (˜1.6 μM), 1 μM dexamethasone, and 0.5 mM 3-isobutyl-1-methylxanthine (IBMX) for 2 days. […]
Gene Expression Analyses. RNA abundance of γ-synuclein and of other genes of interest were measured in 3T3-L1 adipocyte samples using quantitative real-time PCR, as described in detail previously (1). […] Mouse and human tissue panel samples, and samples derived from non-obese and obese WAT (24) were assayed using a two-step process with preparation of cDNA from total RNA, followed by quantitative real-time PCR. […] Amplification cycle number (Ct) of 18S for each sample was determined using commercial 18S primers and probe (ABI) to correct for template loading differences across all target genes (ΔCt method: ΔCt=sample Ct−18S Ct), and expression values were determined relative to control transcript levels using a mathematical formula as previously described (1). […]

Row | Compound | decrease of γ-synuclein mRNA abundance ([1]; fully-differentiated 3T3-L1 adipocytes, 18 hr treatment, dose-response, vs vehicle (DMSO)) | γ-synuclein expression (direction of change) ([1]; mature fat cells, single dose, short-term (18 hr) exposure) | γ-synuclein mRNA (direction of change) ([1]; pre-adipocytes and immature adipocytes, single dose, short-term (18 hr) exposure) | leptin mRNA pattern in response to short-term treatment [2] | effective doses required to decrease γ-synuclein and leptin mRNA, compared to GW1929 ([1]; 3T3-L1 adipocytes, data not shown)
1 | CN(CCOc1ccc(C[C@H](Nc2ccccc2C(=O)c2ccccc2)C(=O)O)cc1)c1ccccn1 [GW1929] | ≤ 50% | decrease | increased | paralleled qualitatively | –
2 | Cc1c(C)c2c(c(C)c1O)CCC(C)(COc1ccc(CC3SC(=O)NC3=O)cc1)O2 (centres unmarked) [troglitazone] | – | – | – | – | at least 5 fold
